From patent US10662481B2, “Methods for predicting response to HDACi/DNMTi combination in multiple myeloma” (INSERM (INSTITUT NATIONAL DE LA SANTÉ ET DE LA RECHERCHE …, priority 2014, dated 2020)

Tests used:
Format in all cases: cell-based, human
Conditions in all cases: 0.5 μM decitabine, mean ± SD of viable cells, 3 experiments
XG-5 = experiment: Cell viability of HMCLs by trypan blue exclusion (XG-5)
XG-6 = experiment: Cell viability of HMCLs by trypan blue exclusion (XG-6)
XG-7 = experiment: Cell viability of HMCLs by trypan blue exclusion (XG-7)
XG-20 = experiment: Cell viability of HMCLs by trypan blue exclusion (XG-20)
LP1 = experiment: Cell viability of HMCLs by trypan blue exclusion (LP1)

Nc1ncn([C@H]2C[C@H](O)[C@@H](CO)O2)c(=O)n1 [5-aza, 5-aza-2′-deoxycytidine]
Cell viability (%) Day 3 5-aza (XG-5): 65 ± 5%
Cell viability (%) Day 3 5-aza (XG-6): 90 ± 1%
Cell viability (%) Day 3 5-aza (XG-7): 90 ± 2%
Cell viability (%) Day 3 5-aza (XG-20): 91 ± 3%
Cell viability (%) Day 3 5-aza (LP1): 91 ± 2%
